Where two headings read alike, the source gives them in different places.

Here are results for ten compounds from patent publication US9481682B2, “Substituted benzamides and substituted pyridinecarboxamides as Btk inhibitors” (MERCK SHARP & DOHME CORP., priority 2013, dated 2016).

For one assay, the system named is HeLa cells. The assay can be described thus: [3H]Adenosine uptake functional cellular assay. It counts as cell-based. The following applies: accumulation of [3H]adenosine into HeLa cells, read-out: Adenosine uptake inhibition IC50. As to the method: Compounds are also screened in an adenosine uptake functional cellular assay using the protocol described below. The adenosine uptake inhibition assay may be used to identify compounds with the potential for a negative cardiovascular side effect.
Adenosine uptake activity was determined by monitoring the accumulation of tritiated adenosine into HeLa cells (ATCC catalog #CCL-2) using a PMT-based radiometric detection instrument. […] These cells were incubated overnight at 37° C. in a humidified atmosphere with 5% (v/v) CO2. After this time the growth medium was removed and replaced with 40 μL assay medium comprising: Hanks balanced salts solution (HBSS; Thermo Fisher Catalog #SH30268.01)+5% (v/v) FBS. […] Following this incubation, 20 μL of 500 nM [^3H]adenosine (American Radiolabeled Chemicals Inc. […] The amount of radiolabel accumulation was then determined using a Perkin Elmer Topcount NXT microplate reader. In brief, HeLa cells adhere to the bottom of the Cytostar-T plate, uptake of [^3H]adenosine into these cells brings the radiolabel into sufficient proximity to excite the scintillant in the base of the plates. These events are captured by single PMT, time-resolved coincidence counting. IC50 values were determined by 4 parameter robust fit of counts per second values vs. (Log10) compound concentrations.

The target in assay [1] is hBTK (recombinant full-length BTK) (Homo sapiens (Human), UniProt Q06187). The assay can be described thus: BTK enzymatic activity, LANCE TR-FRET assay. The class given is biochemical. The following applies: 50 pM hBTK, 2 μM biotin-A5-peptide, 25 μM ATP; 60 minute compound & enzyme incubation. As to the method: BTK enzymatic activity was determined with the LANCE (Lanthanide Chelate Excite) TR-FRET (Time-resolved fluorescence resonance energy transfer) assay. […] Phosphorylation reactions were allowed to proceed for 120 minutes. […] After 60 minutes incubation with detection reagents, reaction plates were read on a PerkinElmer EnVision plate reader using standard TR-FRET protocol. […] IC50 values were determined by 4 parameter robust fit of TR-FRET ratio values vs. (Log10) compound concentrations.
Chain of hBTK (recombinant full-length BTK) (Q06187 whole entry): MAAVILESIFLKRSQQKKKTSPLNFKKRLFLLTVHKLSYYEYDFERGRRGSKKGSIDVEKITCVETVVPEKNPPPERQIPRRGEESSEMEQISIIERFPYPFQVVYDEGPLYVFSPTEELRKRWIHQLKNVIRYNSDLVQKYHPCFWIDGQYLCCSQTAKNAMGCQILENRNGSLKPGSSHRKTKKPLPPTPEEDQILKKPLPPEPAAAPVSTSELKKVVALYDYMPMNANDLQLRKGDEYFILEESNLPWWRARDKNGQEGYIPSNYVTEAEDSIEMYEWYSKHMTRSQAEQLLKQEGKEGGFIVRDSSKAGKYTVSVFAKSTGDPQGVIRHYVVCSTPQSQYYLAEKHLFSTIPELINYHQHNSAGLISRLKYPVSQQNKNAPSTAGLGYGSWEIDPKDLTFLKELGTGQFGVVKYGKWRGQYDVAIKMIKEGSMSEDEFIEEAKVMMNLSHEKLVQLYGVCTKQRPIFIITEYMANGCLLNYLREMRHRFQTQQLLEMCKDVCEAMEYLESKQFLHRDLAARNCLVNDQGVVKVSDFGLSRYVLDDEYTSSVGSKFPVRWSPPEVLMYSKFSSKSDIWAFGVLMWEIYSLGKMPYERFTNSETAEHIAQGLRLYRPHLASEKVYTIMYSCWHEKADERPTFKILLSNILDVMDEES
For orientation: TR-FRET usually uses a lanthanide donor and a delayed reading to cut background.

[2] abbreviates: Homo sapiens, compound range 10 μM to 0.032 nM.

In the case of `Nc1nccn2c([C@H]3CC[C@H]4CNCC(=O)N4C3)nc(-c3ccc(C(=O)Nc4cc(C(F)(F)F)ccn4)cc3)c12` [Example 57, 4-{8-amino-3-[(7S,9aS)-4-oxooctahydro-2H-pyrido[1,2-a]pyrazin-7-yl]imidazo[1,5-a]pyrazin-1-yl}-N-[4-(trifluoromethyl)pyridin-2-yl]benzamide], the 50% inhibitory concentration (IC50) with HeLa cells (setting [2]) was determined as 10000 nM.

On to `Nc1nccn2c([C@@H]3CC[C@@H]4C[C@H](O)C(=O)N4C3)nc(-c3ccc(C(=O)Nc4cc(C(F)(F)F)ccn4)cc3)c12` [Example 72, 4-{8-amino-3-[(2S,6R,8aR)-2-hydroxy-3-oxooctahydroindolizin-6-yl]imidazo[1,5-a]pyrazin-1-yl}-N-[4-(trifluoromethyl)pyridin-2-yl]benzamide], for which the IC50 with HeLa cells (setting [2]) was 730 nM; in assay [1] it was 0.45 nM.

Turning to `Nc1nccn2c([C@H]3CC[C@H]4C[C@@H](O)C(=O)N4C3)nc(-c3ccc(C(=O)Nc4cc(C(F)(F)F)ccn4)cc3)c12` [Example 74, 4-{8-amino-3-[(2R,6S,8aS)-2-hydroxy-3-oxooctahydroindolizin-6-yl]imidazo[1,5-a]pyrazin-1-yl}-N-[4-(trifluoromethyl)pyridin-2-yl]benzamide], the IC50 in the assay with HeLa cells (setting [2]) worked out at 1300 nM; in assay [1] it was 4.6 nM.

Turning to `CN1CC[C@@H]2CC[C@@H](c3nc(-c4ccc(C(=O)Nc5cc(C(F)(F)F)ccn5)cc4)c4c(N)nccn34)CN2C1=O` [Example 83, 4-(8-amino-3-((4aS,7R)-2-methyl-1-oxooctahydro-1H-pyrido[1,2-c]pyrimidin-7-yl)imidazol[1,5-a]pyrazin-1-yl)-N-(4-(trifluoromethyl)pyridin-2-yl)benzamide], the results for the IC50 (in the assay with HeLa cells (compound range 10 μM to […]); in assay [1]) were 124 nM and 0.092 nM, respectively.

For the compound `CN1CC[C@H]2CC[C@H](c3nc(-c4ccc(C(=O)Nc5cc(C(F)(F)F)ccn5)cc4)c4c(N)nccn34)CN2C1=O` [Example 84, 4-(8-amino-3-((4aR,7S)-2-methyl-1-oxooctahydro-1H-pyrido[1,2-c]pyrimidin-7-yl)imidazol[1,5-a]pyrazin-1-yl)-N-(4-(trifluoromethyl)pyridin-2-yl)benzamide], the IC50 in the assay with HeLa cells (compound range 10 μM to […]) came out at 155 nM; in assay [1], 3 nM.

For the compound `COc1cc(C(=O)Nc2cc(C(F)(F)F)ccn2)ccc1-c1nc([C@@H]2CC[C@H]3CN(C(=O)c4ccncc4)CC(=O)N3C2)n2ccnc(N)c12` [Example 85, 4-(8-amino-3-((7R,9aS)-2-isonicotinoyl-4-oxooctahydro-1H-pyrido[1,2-a]pyrazin-7-yl)imidazo[1,5-a]pyrazin-1-yl)-3-methoxy-N-(4-(trifluoromethyl)pyridin-2-yl)benzamide], in the assay with HeLa cells (setting [2]), the IC50 came out at 2780 nM.

On to `NC(=O)c1cc(C(=O)Nc2cc(C(F)(F)F)ccn2)ccc1-c1nc([C@@H]2CC[C@H]3CCC(=O)N3C2)n2ccnc(N)c12` [Example 124, 4-{8-amino-3-[(6R,8aS)-3-oxooctahydroindolizin-6-yl]imidazo[1,5-a]pyrazin-1-yl}-N~1~-[4-(trifluoromethyl)pyridin-2-yl]benzene-1,3-dicarboxamide], for which the half-maximal inhibitory concentration (IC50) with HeLa cells (setting [2]) came out at 10000 nM.

As for `Cn1nc(NC(=O)c2ccc(-c3nc([C@@H]4CC[C@H]5CCC(=O)N5C4)n4ccnc(N)c34)c(OC3CNC3)c2)cc1C(F)(F)F` [Example 149, 4-{8-amino-3-[(6R,8aS)-3-oxooctahydroindolizin-6-yl]imidazo[1,5-a]pyrazin-1-yl}-3-(azetidin-3-yloxy)-N-[1-methyl-5-(trifluoromethyl)-1H-pyrazol-3-yl]benzamide], the IC50 in the assay on HeLa cells (setting [2]) came out at 10000 nM.

As for `COCCOc1cc(C(=O)Nc2cccc(C(F)(F)F)c2)ccc1-c1nc([C@@H]2CC[C@H]3CCC(=O)N3C2)n2ccnc(N)c12` [Example 199, 4-(8-amino-3-((6R,8aS)-3-oxooctahydroindolizin-6-yl)imidazo[1,5-a]pyrazin-1-yl)-3-(2-methoxyethoxy)-N-(3-(trifluoromethyl)phenyl)benzamide], the figures for the IC50 (in the assay on HeLa cells (setting [2]); in assay [1]) were 7090 nM and 1.9 nM, respectively.

With `Nc1nccn2c([C@@H]3CC[C@H]4CCC(=O)N4C3)nc(-c3ccc(C(=O)Nc4cc(C(F)(F)F)ccn4)cc3OCCO)c12` [Example 200, 4-{8-amino-3-[(6R,8aS)-3-oxooctahydroindolizin-6-yl]imidazo[1,5-a]pyrazin-1-yl}-3-(2-hydroxyethoxy)-N-[4-(trifluoromethyl)pyridin-2-yl]benzamide], the 50% inhibitory concentration (IC50) in the assay with HeLa cells (setting [2]) is 5450 nM.

A word on the IC50: it is the concentration that gives 50% inhibition.
